Reference: publication PMC9916762, “Impact of Hydrophobic Chains in Five-Coordinate Glucoconjugate Pt(II) Anticancer Agents” (International Journal of Molecular Sciences, 2023)

Legend:
[1] = Octanol/water partition coefficient, shake-flask method; type: physicochemical; conditions: n-octanol/water, UV-vis
Procedure: The partition coefficients in octanol/water (log Po/w) were measured using the shake-flask method, by calculating the equilibrium concentrations through UV spectra (Table 1).
Partition coefficients for the platinum complexes were determined in triplicate in an n-octanol/water system, with different ratios (1:1, 1:2, 2:1). Each complex was dissolved in n-octanol at the concentrations 16.7, 12.5, or 10 μM and subsequently, an appropriate volume of water was added. The mixtures were shaken mechanically for 1 h to ensure the distribution between the two solvent phases. The samples were then centrifuged (13,000 rpm, 10 min). Afterwards, the platinum concentration was determined in the octanol phases by UV–vis spectrophotometry, after collecting a calibration line for each complex. Results are expressed as the logarithm of the partition coefficient of octanol/water (log Po/w), which is the logarithm of the concentration of platinum in the n-octanol divided by its concentration in the aqueous layer.

[2] = test system: immortalized human keratinocytes (HaCaT); experiment: MTT cell viability assay, HaCaT; type: cell-based; conditions: 48 h incubation
Text: (§1) The immortalized human keratinocytes (HaCaT) were from Innoprot.

[3] = test system: immortalized murine fibroblasts (BALB/c-3T3); conditions: read-out: IC50 BALB-c/3T3; 48 h incubation, MTT
Procedure: To evaluate their biological activity, the effects of the four complexes on cell viability were evaluated in eukaryotic cell models. For this purpose, experiments were performed on two cancer cell lines, i.e., human epidermoid carcinoma cells (A431) and murine fibroblast BALB/c-3T3 transformed with the SV40 virus (SVT2), and on two non-cancer cell lines, i.e., immortalized human keratinocytes (HaCaT) and immortalized murine fibroblasts (BALB/c-3T3). Cells were incubated with increasing concentrations of 1,Me-Me, 1,Oct-Me, 1,Me-Oct, and 1,Oct-Oct (from 0.1 to 50 μM). After 48 h of incubation, cytotoxicity was determined by MTT assay and cell survival was expressed as the percentage of viable cells in the presence of each complex compared with that of the untreated cells (Figure S19).
The immortalized human keratinocytes (HaCaT) were from Innoprot. Human The A431 epidermoid carcinoma, murine BALB/c-3T3, and SVT2 fibroblasts were from ATCC. Cells were cultured in Dulbecco’s modified Eagle’s medium (DMEM) (Sigma-Aldrich, St. Louis, MO, USA), supplemented with 10% foetal bovine serum (HyClone), 2 mM L-glutamine, and antibiotics, all from Sigma-Aldrich, under a 5% CO2-humidified atmosphere at 37 °C. To test the effects of the complexes on cell viability, cells were seeded at a density of 2.5 × 10^3 cells per well in 96-well plates. After 24 h, cells were incubated with increasing concentrations (from 0.1 to 50 μM) of the four complexes. After 48 h, cell viability was assessed by the MTT assay, as previously reported in [43]. Cell viability was expressed as the percentage of viable cells in the presence of the Pt complexes compared to the controls, represented by untreated cells and cells supplemented with identical volumes of DMSO. Each sample was tested in three independent analyses, each carried out in triplicate.

[4] = test system: murine fibroblast BALB/c-3T3 transformed with the SV40 virus (SVT2); experiment: MTT cell viability assay, SVT2; type: cell-based; conditions: for IC50: 48 h incubation, MTT; for SI (selectivity index): ratio IC50 BALB-c/3T3 / IC50 SVT2
Text: as §1

[5] = test system: human epidermoid carcinoma cells (A431); experiment: MTT cell viability assay, A431; type: cell-based; conditions: for IC50: 48 h incubation, MTT; for SI (selectivity index): ratio IC50 HaCaT / IC50 A431
Text: as §1

A431 cells [6] = experiment: Western blot of pro-caspases 9 and 3, A431; type: cell-based, human; conditions: A431, 2.3 μM, 48 h
Procedure: (§2) In particular, SVT2 and A431 were incubated for 48 h with 1-Me,Me and 1-Oct,Me, using the IC50 value concentrations. At the end of incubation, uptake and cell death mechanisms were evaluated. […] Finally, apoptosis was investigated by Western blot analyses using specific antibodies against pro-caspases 9 and 3.
The SVT2 were seeded on six-well plates at a density of 2.5 × 10^5 cells/well, whereas A431 was seeded at a density of 3 × 10^5 cells/well. After 24 h, cells were treated with 9.8 μM of 1-Me,Me or 2.3 μM 1-Oct,Me. After 48 h of incubation, Western blot analyses were performed by using pro-caspase 9 (Cell Signaling Technology, Danvers, MA, USA) and pro-caspase 3 (Abcam, Cambridge, MA, USA) antibodies, as reported by Del Giudice et al. Protein intensity levels were normalized using β-actin (Sigma-Aldrich, St. Louis, MO, USA). The chemiluminescence detection system was purchased from Bio-Rad (Hercules, CA, USA).

A431 cells [7] = experiment: Cellular Pt uptake by ICP-MS, A431; type: cell-based, human; conditions: A431, 2.3 μM (IC50), 48 h, mean ± S.E.
Procedure: as §2
To study the uptake of the complexes, SVT2 and A431 were incubated for 48 h in the presence of 1-Me,Me and 1-Oct,Me, respectively, at their IC50 concentrations. At the end of incubation, Pt determination was performed by inductively coupled plasma mass spectrometry (ICP-MS, Aurora M90; Bruker, Ettlingen/Leipzig, Germany) in the “Normal Sensitivity” mode. Calibration curves for the quantification of Pt ranged from 0.1 to 100 μg/L and were constructed daily by the analysis of the standard solutions prepared immediately before analysis. All standards used for analysis were prepared in HNO3 solution (2%, v/v). The internal standards were ^89Y and ^115In in both the calibration curve and sample analyses. The linearity was acceptable with an R^2 value greater than 0.9996. The treatment of the cells involved a wet digestion: after centrifugation, cell samples were wet digested with 1 mL of ultrapure HNO3 (67–69%, v/v). The mixture was gently boiled over a water bath (90 °C) for 3 h until a clear solution was obtained. […]

Substance	Log Po/w [1]	IC50 [2]	IC50 [3]	IC50 [4]	SI (selectivity index) [4]	IC50 [5]	SI (selectivity index) [5]	pro-caspases 9 and 3 levels (A431 cells [6])	Pt uptake (A431 cells [7])
Platinum(1+), (2,9-dimethyl-1,10-phenanthroline- N1,N10)(η2-ethene)methyl[1,3-dihydro-1-methyl-3-octyl-4-[1-[2,3,4,6-tetrakis-O-(acetyl)-β-D-glucopyranosyl]-1H-1,2,3-triazol-4-yl]-2H-imidazol-2-ylidene], 1,1,1-trifluoromethanesulfonate [1-Me,Oct]	0.74	8 ± 0.1 µM	8.3 ± 0.4 µM	7.6 ± 1.1 µM	1.09	7.3 ± 0.4 µM	1.1		
Platinum(1+), (2,9-dimethyl-1,10-phenanthroline- N1,N10)(η2-ethene)octyl[1,3-dihydro-1,3-dimethyl-4-[1-[2,3,4,6-tetrakis-O-(acetyl)-β-D-glucopyranosyl]-1H-1,2,3-triazol-4-yl]-2H-imidazol-2-ylidene], 1,1,1-trifluoromethanesulfonate [1-Oct,Me]	1.14	6.4 ± 1 µM	7.1 ± 0.1 µM	8.6 ± 0.6 µM	0.83	2.3 ± 0.1 µM	2.78	significant decrease in pro-caspases 9 and 3 levels	14.3 ± 1.3 Pt ng/10^6 cells
Platinum(1+), (2,9-dimethyl-1,10-phenanthroline- N1,N10)(η2-ethene)octyl[1,3-dihydro-1-methyl-3-octyl-4-[1-[2,3,4,6-tetrakis-O-(acetyl)-β-D-glucopyranosyl]-1H-1,2,3-triazol-4-yl]-2H-imidazol-2-ylidene], 1,1,1-trifluoromethanesulfonate [1-Oct,Oct]	0.80	6.4 ± 0.8 µM	7.3 ± 0.7 µM	4.5 ± 1.3 µM	1.62	5 ± 0.6 µM	1.28		
